Measurements as given in ChEMBL document CHEMBL5523766 (J Med Chem, 2024).

Key:
ATR/ATRIP = ATR/ATRIP (Homo sapiens, UniProt Q13535); assay: Inhibition of ATR/ATRIP (unknown origin) using 5-FAM-AK-17 as substrate preincubated with compound for 10 mins followed by ATP addition and measured after 240 mins by mobility shift assay; assay type: protein-complex assay
[1] = biological target: T1, Serine/threonine-protein kinase mTOR (Homo sapiens, UniProt P42345); assay: Inhibition of human mTOR at 10 uM relative to control
[2] = biological target: NUAK family SNF1-like kinase 1 (Homo sapiens) (UniProt O60285); assay: Inhibition of human ARK5 at 10 uM relative to control
[3] = biological target: T2, Tyrosine-protein kinase Lck (Homo sapiens, UniProt P06239); assay: Inhibition of human LCK at 10 uM relative to control
Target sequence in this assay (P06239 2-509 limits assumed): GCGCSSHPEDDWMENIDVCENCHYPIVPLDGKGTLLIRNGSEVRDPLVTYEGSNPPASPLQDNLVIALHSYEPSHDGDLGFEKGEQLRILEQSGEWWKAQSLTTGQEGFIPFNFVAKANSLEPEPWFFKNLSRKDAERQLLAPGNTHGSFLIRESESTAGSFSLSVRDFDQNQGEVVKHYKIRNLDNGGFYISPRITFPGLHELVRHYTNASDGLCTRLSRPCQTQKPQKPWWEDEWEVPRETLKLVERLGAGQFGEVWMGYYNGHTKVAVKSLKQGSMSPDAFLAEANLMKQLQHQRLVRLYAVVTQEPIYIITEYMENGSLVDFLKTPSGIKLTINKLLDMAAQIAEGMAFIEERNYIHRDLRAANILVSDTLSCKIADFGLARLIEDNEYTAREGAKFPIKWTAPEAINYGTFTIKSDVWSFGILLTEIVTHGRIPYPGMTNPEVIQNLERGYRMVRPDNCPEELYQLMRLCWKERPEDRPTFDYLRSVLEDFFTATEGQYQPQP

[4] = biological target: T3, Tyrosine-protein kinase BTK (Homo sapiens, UniProt Q06187); assay: Inhibition of human BTK at 10 uM relative to control
T3 sequence (Q06187 whole entry): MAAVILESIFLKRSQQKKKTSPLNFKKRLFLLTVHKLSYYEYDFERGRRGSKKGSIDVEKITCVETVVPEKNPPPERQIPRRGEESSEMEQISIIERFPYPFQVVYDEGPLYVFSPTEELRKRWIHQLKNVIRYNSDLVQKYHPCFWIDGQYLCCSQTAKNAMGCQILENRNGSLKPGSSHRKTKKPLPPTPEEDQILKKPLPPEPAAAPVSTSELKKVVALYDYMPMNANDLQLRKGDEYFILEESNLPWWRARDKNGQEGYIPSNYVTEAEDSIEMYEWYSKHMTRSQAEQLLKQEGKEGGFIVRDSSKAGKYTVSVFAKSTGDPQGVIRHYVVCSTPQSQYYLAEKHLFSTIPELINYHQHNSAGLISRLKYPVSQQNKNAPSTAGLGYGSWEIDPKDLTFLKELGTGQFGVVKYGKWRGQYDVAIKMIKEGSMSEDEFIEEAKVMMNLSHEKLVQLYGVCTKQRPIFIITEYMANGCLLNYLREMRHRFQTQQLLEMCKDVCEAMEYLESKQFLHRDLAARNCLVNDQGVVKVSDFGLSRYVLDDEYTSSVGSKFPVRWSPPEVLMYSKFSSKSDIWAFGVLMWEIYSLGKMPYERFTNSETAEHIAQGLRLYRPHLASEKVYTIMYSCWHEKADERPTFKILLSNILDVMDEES

[5] = biological target: Tyrosine-protein kinase Mer (Homo sapiens) (UniProt Q12866); assay: Inhibition of human MER at 10 uM relative to control
[6] = biological target: Serine/threonine-protein kinase BRSK2 (Homo sapiens) (UniProt Q8IWQ3); assay: Inhibition of human BRSK2 at 10 uM relative to control
Sequence of Serine/threonine-protein kinase BRSK2 (Homo sapiens) (Q8IWQ3 whole entry): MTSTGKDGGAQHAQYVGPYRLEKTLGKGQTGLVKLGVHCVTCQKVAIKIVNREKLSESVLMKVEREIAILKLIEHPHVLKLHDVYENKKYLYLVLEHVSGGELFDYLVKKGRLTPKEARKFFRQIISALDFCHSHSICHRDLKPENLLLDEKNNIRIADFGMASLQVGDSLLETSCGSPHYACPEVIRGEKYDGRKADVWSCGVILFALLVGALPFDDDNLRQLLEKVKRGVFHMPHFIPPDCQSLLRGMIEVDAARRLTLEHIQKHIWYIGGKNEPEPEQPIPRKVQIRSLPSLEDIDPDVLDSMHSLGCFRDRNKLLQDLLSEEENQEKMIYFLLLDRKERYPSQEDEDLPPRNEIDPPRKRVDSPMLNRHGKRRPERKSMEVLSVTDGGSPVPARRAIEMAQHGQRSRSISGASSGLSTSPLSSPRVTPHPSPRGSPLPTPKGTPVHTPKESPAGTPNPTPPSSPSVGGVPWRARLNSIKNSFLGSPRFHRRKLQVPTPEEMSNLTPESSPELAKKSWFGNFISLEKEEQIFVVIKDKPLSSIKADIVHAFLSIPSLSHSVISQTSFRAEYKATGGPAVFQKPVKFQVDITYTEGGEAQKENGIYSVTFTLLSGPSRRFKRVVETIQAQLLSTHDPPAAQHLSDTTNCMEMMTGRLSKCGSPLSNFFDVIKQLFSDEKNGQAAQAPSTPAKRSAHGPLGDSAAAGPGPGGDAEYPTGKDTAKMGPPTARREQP

[7] = biological target: Interleukin-1 receptor-associated kinase 4 (Homo sapiens) (UniProt Q9NWZ3); assay: Inhibition of human IRAK4 at 10 uM relative to control
Sequence of Interleukin-1 receptor-associated kinase 4 (Homo sapiens) (Q9NWZ3 whole entry): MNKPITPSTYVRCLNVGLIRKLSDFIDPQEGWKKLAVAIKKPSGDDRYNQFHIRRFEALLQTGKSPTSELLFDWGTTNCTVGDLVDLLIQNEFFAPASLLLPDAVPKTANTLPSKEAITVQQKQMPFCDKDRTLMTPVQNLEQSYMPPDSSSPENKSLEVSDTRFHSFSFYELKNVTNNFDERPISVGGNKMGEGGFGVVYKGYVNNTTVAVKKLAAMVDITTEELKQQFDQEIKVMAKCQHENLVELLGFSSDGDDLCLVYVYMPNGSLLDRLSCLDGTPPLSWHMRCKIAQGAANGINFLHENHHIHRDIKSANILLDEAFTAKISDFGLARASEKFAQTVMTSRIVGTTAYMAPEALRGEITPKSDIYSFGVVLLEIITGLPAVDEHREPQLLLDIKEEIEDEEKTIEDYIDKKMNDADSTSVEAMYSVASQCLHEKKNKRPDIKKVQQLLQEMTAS

Aurora kinase B [8] = biological target: T4, Aurora kinase B (Homo sapiens, UniProt Q96GD4); assay: Inhibition of human Aurora B at 10 uM relative to control
T4 sequence (Q96GD4 whole entry): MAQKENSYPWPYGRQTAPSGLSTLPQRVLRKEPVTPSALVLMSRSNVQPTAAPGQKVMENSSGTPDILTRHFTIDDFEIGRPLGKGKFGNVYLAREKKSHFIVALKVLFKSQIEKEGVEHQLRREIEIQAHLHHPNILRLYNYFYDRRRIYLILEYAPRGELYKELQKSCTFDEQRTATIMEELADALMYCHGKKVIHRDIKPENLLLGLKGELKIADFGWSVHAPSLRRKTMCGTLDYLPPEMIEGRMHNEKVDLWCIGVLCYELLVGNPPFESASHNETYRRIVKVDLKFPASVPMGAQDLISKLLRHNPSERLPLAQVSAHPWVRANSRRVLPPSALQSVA

[9] = biological target: T5, Tyrosine-protein kinase JAK1 (Homo sapiens, UniProt P23458); assay: Inhibition of human JAK1 at 10 uM relative to control
T5 sequence (P23458 whole entry): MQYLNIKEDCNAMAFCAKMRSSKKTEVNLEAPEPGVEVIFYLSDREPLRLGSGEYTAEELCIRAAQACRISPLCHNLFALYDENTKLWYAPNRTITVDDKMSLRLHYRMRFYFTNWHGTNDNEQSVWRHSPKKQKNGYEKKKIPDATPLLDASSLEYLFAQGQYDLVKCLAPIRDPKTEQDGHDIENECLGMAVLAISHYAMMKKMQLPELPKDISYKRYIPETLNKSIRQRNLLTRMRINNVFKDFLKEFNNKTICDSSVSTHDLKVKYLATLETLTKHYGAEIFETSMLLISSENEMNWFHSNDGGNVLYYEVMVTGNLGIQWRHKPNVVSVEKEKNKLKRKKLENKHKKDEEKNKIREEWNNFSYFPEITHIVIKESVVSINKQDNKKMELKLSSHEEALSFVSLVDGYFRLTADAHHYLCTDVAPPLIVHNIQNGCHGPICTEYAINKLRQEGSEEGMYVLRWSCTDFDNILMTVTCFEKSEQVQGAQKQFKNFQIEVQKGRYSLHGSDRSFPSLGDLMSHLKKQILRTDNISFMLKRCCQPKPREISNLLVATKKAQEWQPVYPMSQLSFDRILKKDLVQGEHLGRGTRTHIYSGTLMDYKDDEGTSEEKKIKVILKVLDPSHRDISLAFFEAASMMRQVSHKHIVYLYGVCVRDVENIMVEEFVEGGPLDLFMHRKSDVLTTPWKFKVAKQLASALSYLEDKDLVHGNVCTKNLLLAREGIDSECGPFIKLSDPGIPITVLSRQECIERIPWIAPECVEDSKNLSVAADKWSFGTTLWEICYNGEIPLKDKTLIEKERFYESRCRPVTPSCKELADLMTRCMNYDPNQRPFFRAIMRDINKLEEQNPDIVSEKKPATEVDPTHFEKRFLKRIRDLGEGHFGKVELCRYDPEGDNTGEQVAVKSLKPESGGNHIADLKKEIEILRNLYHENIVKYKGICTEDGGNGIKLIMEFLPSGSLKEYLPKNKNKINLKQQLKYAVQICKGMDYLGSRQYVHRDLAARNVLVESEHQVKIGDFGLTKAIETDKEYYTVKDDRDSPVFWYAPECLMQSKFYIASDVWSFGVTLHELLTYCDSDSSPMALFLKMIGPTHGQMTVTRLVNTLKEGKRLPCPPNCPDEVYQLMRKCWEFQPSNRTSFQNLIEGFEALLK

[10] = biological target: T6, Cyclin-dependent kinase 2 (Homo sapiens, UniProt P24941); assay: Inhibition of human CDK2 at 10 uM relative to control
[11] = biological target: AMPK alpha2/beta1/gamma1 (Homo sapiens) (UniProt P54646+P54619+Q9Y478); assay: Inhibition of human AMPK alpha2/beta1/gamma1 at 10 uM relative to control; assay type: protein-complex assay
[12] = biological target: T7, Tyrosine-protein kinase Lyn (Homo sapiens, UniProt P07948); assay: Inhibition of human LYN at 10 uM relative to control
[13] = biological target: Serine/threonine-protein kinase 17B (Homo sapiens) (UniProt O94768); assay: Inhibition of human DRAK2 at 10 uM relative to control
[14] = biological target: Receptor-type tyrosine-protein kinase FLT3 (Homo sapiens) (UniProt P36888); assay: Inhibition of human FLT3 at 10 uM relative to control
[15] = biological target: T1, Serine/threonine-protein kinase mTOR; assay: Inhibition of human mTOR
[16] = biological target: NUAK family SNF1-like kinase 1 (Homo sapiens, UniProt O60285); assay: Inhibition of human ARK5
[17] = biological target: T2, Tyrosine-protein kinase Lck; assay: Inhibition of human LCK
[18] = biological target: T3, Tyrosine-protein kinase BTK; assay: Inhibition of human BTK
[19] = biological target: Tyrosine-protein kinase Mer (Homo sapiens, UniProt Q12866); assay: Inhibition of human MER
[20] = biological target: Tyrosine-protein kinase ABL1 (Homo sapiens, UniProt P00519); assay: Inhibition of human ABL
[21] = biological target: Serine/threonine-protein kinase BRSK2 (Homo sapiens, UniProt Q8IWQ3); assay: Inhibition of human BRSK2
Sequence of Serine/threonine-protein kinase BRSK2 (Q8IWQ3 whole entry): as the sequence (Q8IWQ3 whole entry) above

[22] = biological target: Interleukin-1 receptor-associated kinase 4 (Homo sapiens, UniProt Q9NWZ3); assay: Inhibition of human IRAK4
Sequence of Interleukin-1 receptor-associated kinase 4 (Q9NWZ3 whole entry): as the sequence (Q9NWZ3 whole entry) above

Aurora kinase B [23] = biological target: T4, Aurora kinase B; assay: Inhibition of human Aurora B
[24] = biological target: T5, Tyrosine-protein kinase JAK1; assay: Inhibition of human JAK1
[25] = biological target: T6, Cyclin-dependent kinase 2; assay: Inhibition of human CDK2
AMPK alpha2/beta1/gamma1 = AMPK alpha2/beta1/gamma1 (Homo sapiens, UniProt P54619+P54646+Q9Y478); assay: Inhibition of human AMPK alpha2/beta1/gamma1; assay type: protein-complex assay
[26] = biological target: T7, Tyrosine-protein kinase Lyn; assay: Inhibition of human LYN
[27] = biological target: Serine/threonine-protein kinase 17B (Homo sapiens, UniProt O94768); assay: Inhibition of human DRAK2
[28] = biological target: Receptor-type tyrosine-protein kinase FLT3 (Homo sapiens, UniProt P36888); assay: Inhibition of human FLT3
Granta-519 = assay: Antiproliferative activity against human Granta-519 cells assessed as inhibition of cell growth incubated for 72 hrs by MTS assay; assay type: functional, cell-based; conditions: Granta-519, 72 h
A2780 = assay: Antiproliferative activity against human A2780 cells assessed as inhibition of cell growth incubated for 72 hrs by MTS assay; assay type: functional, cell-based; conditions: A2780, 72 h
OCI-Ly10 = assay: Antiproliferative activity against human OCI-Ly10 cells assessed as inhibition of cell growth incubated for 72 hrs by MTS assay; assay type: functional, cell-based; conditions: OCI-Ly10, 72 h
LoVo = assay: Antiproliferative activity against human LoVo cells assessed as inhibition of cell growth incubated for 72 hrs by MTS assay; assay type: functional, cell-based
HCT-116 = assay: Antiproliferative activity against human HCT-116 cells assessed as inhibition of cell growth incubated for 72 hrs by MTS assay; assay type: functional, cell-based; conditions: HCT-116, 72 h
NCI-H446 = assay: Antiproliferative activity against human NCI-H446 cells assessed as inhibition of cell growth incubated for 72 hrs by MTS assay; assay type: functional, cell-based; conditions: NCI-H446, 72 h
HT-29 = assay: Antiproliferative activity against human HT-29 cells assessed as inhibition of cell growth incubated for 72 hrs by MTS assay; assay type: functional, cell-based; conditions: HT-29, 72 h
SUD4 = assay: Antiproliferative activity against human SU-DHL-4 cells assessed as inhibition of cell growth incubated for 72 hrs by MTS assay; assay type: functional, cell-based; conditions: SU-DHL-4, 72 h
DLD-1 = assay: Antiproliferative activity against human DLD-1 cells assessed as inhibition of cell growth incubated for 72 hrs by MTS assay; assay type: functional, cell-based; conditions: DLD-1, 72 h
CAPAN-1 = assay: Antiproliferative activity against human CAPAN-1 cells assessed as inhibition of cell growth incubated for 72 hrs by MTS assay; assay type: functional, cell-based; conditions: CAPAN-1, 72 h
PC-3 = assay: Antiproliferative activity against human PC-3 cells assessed as inhibition of cell growth incubated for 72 hrs by MTS assay; assay type: functional, cell-based; conditions: PC-3, 72 h
[29] = Lipophilicity, logD of compound at pH 7.4; assay type: physicochemical; conditions: buffer
[30] = Plasma protein binding in mouse; assay type: ADME, cell-free; conditions: read-out: PPB (converted)
[31] = Apparent permeability across apical to basolateral side in human Caco-2 cells; assay type: ADME, cell-based
[32] = Apparent permeability across basolateral to apical side in human Caco-2 cells; assay type: ADME, cell-based
[33] = Efflux ratio of apparent permeability across […] side in human Caco-2 cells; assay type: ADME, cell-based
[34] = Apparent permeability across apical to basolateral side in dog MDCK-MDR1 cells; assay type: ADME, cell-based, Canis lupus familiaris
[35] = Apparent permeability across basolateral to apical side in dog MDCK-MDR1 cells; assay type: ADME, cell-based, Canis lupus familiaris
[36] = Efflux ratio of apparent permeability across […] side in dog MDCK-MDR1 cells; assay type: ADME, cell-based, Canis lupus familiaris
CYP1A2 = CYP1A2 (Homo sapiens, UniProt P05177); assay: Time dependent inhibition of CYP1A2 (unknown origin) at 10 uM relative to control; assay type: ADME; conditions: read-out: TDI
CYP2C9 = CYP2C9 (Homo sapiens, UniProt P11712); assay: Time dependent inhibition of CYP2C9 (unknown origin) at 10 uM relative to control; assay type: ADME; conditions: read-out: TDI
Sequence of CYP2C9 (P11712 whole entry): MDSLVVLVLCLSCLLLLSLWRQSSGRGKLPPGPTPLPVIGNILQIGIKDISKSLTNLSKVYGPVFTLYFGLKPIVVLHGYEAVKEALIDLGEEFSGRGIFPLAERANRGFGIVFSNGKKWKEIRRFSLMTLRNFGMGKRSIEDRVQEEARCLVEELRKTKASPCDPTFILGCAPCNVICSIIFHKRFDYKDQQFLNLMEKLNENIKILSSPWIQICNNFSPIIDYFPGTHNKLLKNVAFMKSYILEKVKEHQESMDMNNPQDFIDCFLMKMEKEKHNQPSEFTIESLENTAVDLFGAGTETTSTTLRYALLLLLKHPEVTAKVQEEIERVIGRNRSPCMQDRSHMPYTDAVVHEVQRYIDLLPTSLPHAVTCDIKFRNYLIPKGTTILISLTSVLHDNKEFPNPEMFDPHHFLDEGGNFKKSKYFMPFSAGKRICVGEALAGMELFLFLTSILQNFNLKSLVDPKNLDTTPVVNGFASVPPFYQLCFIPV

[37] = AUClast in ICR mouse at 50 mg/kg,po measured upto 24 hrs by LC-MS/MS analysis; assay type: ADME, organism-based; conditions: in vivo
CYP2C19 = CYP2C19 (Homo sapiens, UniProt P33261); assay: Time dependent inhibition of CYP2C19 (unknown origin) at 10 uM relative to control; assay type: ADME; conditions: read-out: TDI
CYP2D6 = CYP2D6 (Homo sapiens, UniProt P10635); assay: Time dependent inhibition of CYP2D6 (unknown origin) at 10 uM relative to control; assay type: ADME; conditions: read-out: TDI
Sequence of CYP2D6 (P10635 whole entry): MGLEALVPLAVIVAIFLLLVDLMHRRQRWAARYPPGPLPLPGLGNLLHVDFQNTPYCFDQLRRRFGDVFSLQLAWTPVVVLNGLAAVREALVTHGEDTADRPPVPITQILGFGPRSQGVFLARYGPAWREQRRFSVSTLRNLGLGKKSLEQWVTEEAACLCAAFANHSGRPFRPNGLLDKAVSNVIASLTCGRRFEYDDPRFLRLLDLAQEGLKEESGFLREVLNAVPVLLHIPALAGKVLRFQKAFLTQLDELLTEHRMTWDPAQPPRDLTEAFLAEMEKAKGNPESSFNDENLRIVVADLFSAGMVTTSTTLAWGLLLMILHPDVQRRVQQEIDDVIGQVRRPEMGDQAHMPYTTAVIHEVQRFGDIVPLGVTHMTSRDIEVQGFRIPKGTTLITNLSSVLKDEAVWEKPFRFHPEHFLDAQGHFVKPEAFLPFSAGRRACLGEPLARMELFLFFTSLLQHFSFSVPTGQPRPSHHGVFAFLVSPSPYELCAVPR

CYP3A4 = CYP3A4 (Homo sapiens, UniProt P08684); assay: Time dependent inhibition of CYP3A4 (unknown origin) at 10 uM relative to control; assay type: ADME; conditions: read-out: TDI
[38] = Half life in ICR mouse at 50 mg/kg,po measured upto 24 hrs by LC-MS/MS analysis; assay type: ADME, organism-based; conditions: in vivo
[39] = Tmax in ICR mouse at 50 mg/kg,po measured upto 24 hrs by LC-MS/MS analysis; assay type: ADME, organism-based; conditions: in vivo
[40] = Cmax in ICR mouse at 50 mg/kg,po measured upto 24 hrs by LC-MS/MS analysis; assay type: ADME, organism-based; conditions: in vivo
[41] = AUCinfinity in ICR mouse at 50 mg/kg,po measured upto 24 hrs by LC-MS/MS analysis; assay type: ADME, organism-based; conditions: in vivo

Q: Which results are given for `C[C@@H]1COCCN1c1nc(-c2cncc3[nH]ccc23)nc2c1ccn2S(C)(=O)=O`?
A: IC50 (ATR/ATRIP): 1.6 nM; inhibition [1]: 102%; inhibition [2]: 20.5%; inhibition [3]: 79.2%; inhibition [4]: 41.8%; inhibition [5]: 35.7%; inhibition [6]: 21.6%; inhibition [7]: 46.1%; inhibition (Aurora kinase B [8]): 22.5%; inhibition [9]: 29.5%; inhibition [10]: 5.98%; inhibition [11]: 1.11%; inhibition [12]: 13.3%; inhibition [13]: 24.6%; inhibition [14]: 62.8%; IC50 [15]: 22.4 nM; IC50 [16]: > 10000 nM; IC50 [17]: 4950 nM; IC50 [18]: > 10000 nM; IC50 [19]: > 10000 nM; IC50 [20]: > 10000 nM; IC50 [21]: > 10000 nM; IC50 [22]: > 10000 nM; IC50 (Aurora kinase B [23]): > 10000 nM; IC50 [24]: > 10000 nM; IC50 [25]: > 10000 nM; IC50 (AMPK alpha2/beta1/gamma1): > 10000 nM; IC50 [26]: > 10000 nM; IC50 [27]: > 10000 nM; IC50 [28]: > 10000 nM; IC50 (Granta-519): 100 nM; IC50 (A2780): 90 nM; IC50 (OCI-Ly10): 100 nM; IC50 (LoVo): 150 nM; IC50 (HCT-116): 150 nM; IC50 (NCI-H446): 230 nM; IC50 (HT-29): 350 nM; IC50 (SUD4): 300 nM; IC50 (DLD-1): 460 nM; IC50 (CAPAN-1): 820 nM; IC50 (PC-3): 780 nM; logD [29]: 3.11; fraction unbound [30]: 0.006; Papp A→B [31]: 21.5 ×10⁻⁶ cm/s; Papp B→A [32]: 30.2 ×10⁻⁶ cm/s; efflux ratio [33]: 1.41; Papp A→B [34]: 6.02 ×10⁻⁶ cm/s; Papp B→A [35]: 29 ×10⁻⁶ cm/s; efflux ratio [36]: 4.81; inhibition at 10 µM (CYP1A2): 28.6%; inhibition at 10 µM (CYP2C9): 0%; AUC(0-t) at 24 h [37]: 46700 ng·h/mL; inhibition at 10 µM (CYP2C19): 0%; inhibition at 10 µM (CYP2D6): 3.71%; inhibition at 10 µM (CYP3A4): 18.6%; half-life [38]: 2.01 h; Tmax [39]: 0.5 h; Cmax [40]: 18900 ng/mL; AUC(0-inf) [41]: 46700 ng·h/mL
